*1 amine or outer side, *2 acyl side, *3 side chain or, on linkers, in order; H or OH if unused. Where a SMILES comes first, the peptide text is derived from it. [ ]: non-standard residue; d: D form. The star is where a group is joined. X1 = CC[C@]1(O)C[C@H]2CN(CCc3c([nH]c4ccccc34)[C@@](C(=O)OC)(c3cc4c(cc3OC)N(C)[C@H]3[C@@](O)(C(=O)NNC(=O)OCCS*)[C@H](O)[C@]5(CC)C=CCN6CC[C@]43[C@@H]65)C2)C1; Nle(3R-OH,4S-OH,5R-OH,6-OH) = N[C@H](C(=O)O)[C@@H](O)[C@H](O)[C@H](O)CO; Pteroyl = Nc1nc2ncc(CNc3ccc(C(=O)*)cc3)nc2c(=O)[nH]1; γGlu = O=C(O)[C@H](CCC(=O)[*:2])N[*:1]
Columns and labels:
[1] = rat, in vivo
Text: Comparison of Bile Clearance (% ID) of unconjugated drug, drug conjugate lacking a hydrophilic spacer linker, and conjugates described herein.

[2] = tested on: folate receptor-positive KB cells; type: cell-based; settings: excess folic acid
Experimental: Inhibition of Cellular DNA Synthesis. The compounds described herein were evaluated using an in vitro cytotoxicity assay that predicts the ability of the drug to inhibit the growth of folate receptor-positive KB cells. The compounds were comprised of folate linked to a respective chemotherapeutic drug, as prepared according to the protocols described herein. […] The cells were then rinsed once with fresh culture medium and incubated in fresh culture medium for 72 hours at 37° C. Cell viability was assessed using a ^3H-thymidine incorporation assay.
(§1) In Vitro Concentration-Dependent Cytotoxic Activity. Cells were heavily seeded in 24-well Falcon plates and allowed to form nearly confluent monolayers overnight. Thirty minutes prior to the addition of test article, spent medium was aspirated from all wells and replaced with fresh folate-free RPMI (FFRPMI). […] Treated cells were pulsed for 2 h at 37° C., rinsed 4 times with 0.5 mL of media, and then chased in 1 mL of fresh media up to 70 h. Spent media was aspirated from all wells and replaced with fresh media containing 5 μCi/mL ^3H-thymidine. Following a further 2 h 37° C. incubation, cells were washed 3 times with 0.5 mL of PBS and then treated with 0.5 mL of ice-cold 5% trichloroacetic acid per well. After 15 min, the trichloroacetic acid was aspirated and the cell material solubilized by the addition of 0.5 mL of 0.25 N sodium hydroxide for 15 min. Four hundred and fifty μL of each solubilized sample were transferred to scintillation vials containing 3 mL of Ecolume scintillation cocktail and then counted in a liquid scintillation counter. Final tabulated results were expressed as the percentage of ^3H-thymidine incorporation relative to untreated controls.
(§2) As shown in the figures herein, dose-dependent cytotoxicity was measurable, and in most cases, the IC50 values (concentration of drug conjugate required to reduce ^3H-thymidine incorporation into newly synthesized DNA by 50%) were in the low nanomolar range. […] The following table illustrated data for selected compounds against KB cells and against RAW264.7 cells

[3] = FIG. 6B, 7B, 8B; M109 tumors, Balb/c mice; 2 μmol/kg TIW two weeks
Experimental: Toxicity as Measured by Weight Loss. The percentage weight change was determined in mice (5 mice/group) on selected days post-tumor inoculation (PTI), compared to controls, and graphed.

RAW264.7 cells = type: cell-based; settings: for RAW264.7 Cells Competable with xs folate: excess folic acid
Experimental: as §1, §2

With `CC[C@]1(O)C[C@@H]2CN(CCc3c([nH]c4ccccc34)[C@@](C(=O)OC)(c3cc4c(cc3OC)N(C)[C@H]3[C@@](O)(C(=O)NN)[C@H](O)[C@]5(CC)C=CCN6CC[C@]43[C@@H]65)C2)C1` [DAVLBH, deacetylvinblastine monohydrazide, reference compound] the “Bile clearance (% ID)” value [1] was 58.0 % ID.
With `CC[C@]1(O)C[C@H]2CN(CCc3c([nH]c4ccccc34)[C@@](C(=O)OC)(c3cc4c(cc3OC)N(C)[C@H]3[C@@](O)(C(=O)NNC(=O)OCCSSC[C@H](NC(=O)[C@@H](NC(=O)[C@@H](NC(=O)[C@H](CC(=O)O)NC(=O)[C@@H](NC(=O)CC[C@H](NC(=O)c5ccc(NCc6cnc7nc(N)[nH]c(=O)c7n6)cc5)C(=O)O)[C@@H](O)[C@H](O)[C@H](O)CO)[C@@H](O)[C@H](O)[C@H](O)CO)[C@@H](O)[C@H](O)[C@H](O)CO)C(=O)O)[C@H](O)[C@]5(CC)C=CCN6CC[C@]43[C@@H]65)C2)C1` [EC0258, Tris-Saccharo-Asp-Folate Vinblastine Conjugate] the “KB Cells Competable with xs folate” value [2] was “Yes” and the “Bile clearance (% ID)” value [1] was 3.2 % ID.
For `COc1ccc(C[C@H]2NC(=O)/C=C/C[C@@H]([C@H](C)[C@@H](OC(=O)OCCSSC[C@H](NC(=O)[C@@H](NC(=O)[C@H](CC(=O)O)NC(=O)[C@@H](NC(=O)[C@H](CC(=O)O)NC(=O)[C@@H](NC(=O)CC[C@H](NC(=O)c3ccc(NCc4cnc5nc(N)[nH]c(=O)c5n4)cc3)C(=O)O)[C@@H](O)[C@H](O)[C@H](O)CO)[C@@H](O)[C@H](O)[C@H](O)CO)[C@@H](O)[C@H](O)[C@H](O)CO)C(=O)O)[C@@H](Cl)c3ccccc3)OC(=O)[C@H](CC(C)C)OC(=O)C(C)(C)CNC2=O)cc1Cl` [EC0262], the “KB Cells Competable with xs folate” value [2] was “Yes”.
In the case of `CC[C@]1(O)C[C@H]2CN(CCc3c([nH]c4ccccc34)[C@@](C(=O)OC)(c3cc4c(cc3OC)N(C)[C@H]3[C@@](O)(C(=O)NNC(=O)OCCSSC[C@H](NC(=O)CCOCCOCCOCCOCCOCCOCCOCCOCCOCCOCCOCCOCCNC(=O)CC[C@H](NC(=O)c5ccc(NCc6cnc7nc(N)nc(O)c7n6)cc5)C(=O)O)C(=O)O)[C@H](O)[C@]5(CC)C=CCN6CC[C@]43[C@@H]65)C2)C1` [EC0409], the “KB Cells Competable with xs folate” value [2] is reported as “Yes” and the “Bile clearance (% ID)” value [1] is reported as 7.9 % ID.
With `CNC(=O)[C@H](Cc1cn(CCO[C@@H]2OC(C(=O)O)C(O)[C@H](O)C2O)nn1)NC(=O)CC[C@H](NC(=O)c1ccc(NCc2cnc3nc(N)nc(O)c3n2)cc1)C(=O)O` (stereo partly shown) [EC0423] the “Bile clearance (% ID)” value [1] was 3.9 % ID.
With `CC[C@]1(O)C[C@H]2CN(CCc3c([nH]c4ccccc34)[C@@](C(=O)OC)(c3cc4c(cc3OC)N(C)[C@H]3[C@@](O)(C(=O)NNC(=O)OCCSSC[C@H](NC(=O)[C@@H](NC(=O)[C@H](CC(=O)O)NC(=O)[C@@H](NC(=O)[C@H](CC(=O)O)NC(=O)[C@@H](NC(=O)[C@H](CC(=O)O)NC(=O)[C@@H](NC(=O)CC[C@H](NC(=O)c5ccc(NCc6cnc7nc(N)[nH]c(=O)c7n6)cc5)C(=O)O)[C@@H](O)[C@H](O)[C@H](O)CO)[C@@H](O)[C@H](O)[C@H](O)CO)[C@@H](O)[C@H](O)[C@H](O)CO)[C@@H](O)[C@H](O)[C@H](O)CO)C(=O)O)[C@H](O)[C@]5(CC)C=CCN6CC[C@]43[C@@H]65)C2)C1` [EC0434, Tetra-Saccharo-Tris-Asp-Folate Vinblastine Conjugate] ({Pteroyl-γGlu}-[Nle(3R-OH,4S-OH,5R-OH,6-OH)]D[Nle(3R-OH,4S-OH,5R-OH,6-OH)]D[Nle(3R-OH,4S-OH,5R-OH,6-OH)]D[Nle(3R-OH,4S-OH,5R-OH,6-OH)]C(X1)-OH) the “gross toxicity (percentage body weight change)” value [3] was “no gross toxicity was observed” and the “percent of total dose in the bile (total DAVLBH biliary excretion)” value ([1]; iv) was 2.8%.
In the case of `CCC(C)[C@H](NC(=O)[C@H]1CCCCN1C)C(=O)N(COC(=O)CC(C)C)[C@H](C[C@@H](OC(C)=O)c1nc(C(=O)N[C@@H](Cc2ccc(O)cc2)C[C@H](C)C(=O)NNC(=O)OCSSC[C@H](NC(=O)[C@H](CCC(=O)NC[C@H](O)[C@@H](O)[C@H](O)[C@H](O)CO)NC(=O)[C@H](CCC(=O)O)NC(=O)[C@H](CCC(=O)NC[C@H](O)[C@@H](O)[C@H](O)[C@H](O)CO)NC(=O)[C@H](CCC(=O)O)NC(=O)[C@H](CCC(=O)NC[C@H](O)[C@@H](O)[C@H](O)[C@H](O)CO)NC(=O)CC[C@H](NC(=O)c2ccc(NCc3cnc4nc(N)[nH]c(=O)c4n3)cc2)C(=O)O)C(=O)O)cs1)C(C)C` (stereo partly shown) [EC0543], the “KB Cells Competable with xs folate” value [2] is reported as “Yes”.
For `Nc1nc(N)c2nc(CNc3ccc(C(=O)N[C@@H](CCC(=O)OCCSSC[C@H](NC(=O)[C@H](CCC(=O)NC[C@H](O)[C@@H](O)[C@H](O)[C@H](O)CO)NC(=O)[C@H](CCC(=O)O)NC(=O)[C@H](CCC(=O)NC[C@H](O)[C@@H](O)[C@H](O)[C@H](O)CO)NC(=O)[C@H](CCC(=O)O)NC(=O)[C@H](CCC(=O)NC[C@H](O)[C@@H](O)[C@H](O)[C@H](O)CO)NC(=O)CC[C@H](NC(=O)c4ccc(NCc5cnc6nc(N)[nH]c(=O)c6n5)cc4)C(=O)O)C(=O)O)C(=O)O)cc3)cnc2n1` [EC0551], the IC50 (RAW264.7 cells) was 1 nM and the “RAW264.7 Cells Competable with xs folate” value (RAW264.7 cells) was “Yes”.
With `CO[C@H]1C[C@@H]2CC[C@@H](C)[C@@](O)(O2)C(=O)C(=O)N2CCCC[C@H]2C(=O)O[C@H]([C@H](C)C[C@@H]2CC[C@@H](O)[C@H](OC)C2)CC(=O)[C@H](C)/C=C(\C)[C@@H](OC(=O)OCCSSC[C@H](NC(=O)[C@H](CCC(=O)NC[C@H](O)[C@@H](O)[C@H](O)[C@H](O)CO)NC(=O)[C@H](CCC(=O)O)NC(=O)[C@H](CCC(=O)NC[C@H](O)[C@@H](O)[C@H](O)[C@H](O)CO)NC(=O)[C@H](CCC(=O)O)NC(=O)[C@H](CCC(=O)NC[C@H](O)[C@@H](O)[C@H](O)[C@H](O)CO)NC(=O)CC[C@H](NC(=O)c2ccc(NCc3cnc4nc(N)[nH]c(=O)c4n3)cc2)C(=O)O)C(=O)O)[C@@H](OC)C(=O)[C@H](C)C[C@H](C)/C=C/C=C/C=C/1C` [EC0552] the “RAW264.7 Cells Competable with xs folate” value (RAW264.7 cells) was “Yes”.
With `CC(=O)O[C@H]1C(=O)[C@@]2(C)[C@H]([C@H](OC(=O)c3ccccc3)[C@]3(O)C[C@H](OC(=O)[C@H](OC(=O)COc4ccc(C(=O)NNC(=O)OCCSSC[C@H](NC(=O)[C@H](CCC(=O)NC[C@H](O)[C@@H](O)[C@H](O)[C@H](O)CO)NC(=O)[C@H](CCC(=O)O)NC(=O)[C@H](CCC(=O)NC[C@H](O)[C@@H](O)[C@H](O)[C@H](O)CO)NC(=O)[C@H](CCC(=O)O)NC(=O)[C@H](CCC(=O)NC[C@H](O)[C@@H](O)[C@H](O)[C@H](O)CO)NC(=O)CC[C@H](NC(=O)c5ccc(NCc6cnc7nc(N)[nH]c(=O)c7n6)cc5)C(=O)O)C(=O)O)cc4)[C@@H](NC(=O)c4ccccc4)c4ccccc4)C(C)=C1C3(C)C)[C@]1(OC(C)=O)CO[C@@H]1C[C@@H]2O` [EC0561] the “KB Cells Competable with xs folate” value [2] was “Yes”.
In the case of `CO[C@H]1C[C@@H]2CC[C@@H](C)[C@@](O)(O2)C(=O)C(=O)N2CCCC[C@H]2C(=O)O[C@H]([C@H](C)C[C@@H]2CC[C@@H](O)[C@H](OC)C2)CC(=O)[C@H](C)/C=C(\C)[C@@H](OC(=O)OCCSSCCC(=O)NC[C@@H]2NC(=O)[C@@H](NC(=O)[C@H](CCC(=O)O)NC(=O)[C@H](CCC(=O)NC[C@H](O)[C@@H](O)[C@H](O)[C@H](O)CO)NC(=O)[C@H](CCC(=O)O)NC(=O)[C@H](CCC(=O)NC[C@H](O)[C@@H](O)[C@H](O)[C@H](O)CO)NC(=O)CC[C@H](NC(=O)c3ccc(NCc4cnc5nc(N)[nH]c(=O)c5n4)cc3)C(=O)O)CCC(=O)NC[C@H](O)[C@@H](O)[C@H](O)[C@H]3COB(O3)[C@H](CC(C)C)NC(=O)[C@H](Cc3ccccc3)NC(=O)c3cnc(cn3)CSSC[C@@H](C(=O)O)NC2=O)[C@@H](OC)C(=O)[C@H](C)C[C@H](C)/C=C/C=C/C=C/1C` [EC0563], the “RAW264.7 Cells Competable with xs folate” value (RAW264.7 cells) is reported as “Yes”.
In the case of `CO[C@H]1C[C@@H]2CC[C@@H](C)[C@@](O)(O2)C(=O)C(=O)N2CCCC[C@H]2C(=O)O[C@H]([C@H](C)C[C@@H]2CC[C@@H](OCCOC(=O)OCCSSCCC(=O)NC[C@@H]3NC(=O)[C@@H](NC(=O)[C@H](CCC(=O)O)NC(=O)[C@H](CCC(=O)NC[C@H](O)[C@@H](O)[C@H](O)[C@H](O)CO)NC(=O)[C@H](CCC(=O)O)NC(=O)[C@H](CCC(=O)NC[C@H](O)[C@@H](O)[C@H](O)[C@H](O)CO)NC(=O)CC[C@H](NC(=O)c4ccc(NCc5cnc6nc(N)[nH]c(=O)c6n5)cc4)C(=O)O)CCC(=O)NC[C@H](O)[C@@H](O)[C@H](O)[C@H]4COB(O4)[C@H](CC(C)C)NC(=O)[C@H](Cc4ccccc4)NC(=O)c4cnc(cn4)CSSC[C@@H](C(=O)O)NC3=O)[C@H](OC)C2)CC(=O)[C@H](C)/C=C(\C)[C@@H](O)[C@@H](OC)C(=O)[C@H](C)C[C@H](C)/C=C/C=C/C=C/1C` [EC0582], the “RAW264.7 Cells Competable with xs folate” value (RAW264.7 cells) is reported as “Yes”.

— US20140073761A1, “CONJUGATES CONTAINING HYDROPHILIC SPACER LINKERS” (priority 2007, published 2014)
